From PubChem BioAssay AID328 (DTP/NCI, 2004)
Several values for one entry are separate records, joined by “and”; a condition that tells them apart may be missing. Identical values can stand only once. Toxic doses and inconclusive results are not listed.

System: BDF1 mice, P388 leukemia ip, median survival T/C
Assay: NCI In Vivo Anticancer Drug Screen. Data for tumor model P388 Leukemia (intraperitoneal) in B6D2F1 (BDF1) mice
Conditions: endpoint: median survival time, higher = longer survival
How it was run: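 Vehicle-dosed animals serve as the reference; survival of compound-dosed, tumour-implanted mice is divided by it.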

[1] = dose: 100.0 mg/kg/injection, schedule: Q01DX009 (ip), vehicle: Klucel (hydroxypropylcellulose) (HPC)
[2] = dose: 100.0 mg/kg/injection, schedule: Q04DX003 (ip), vehicle: Klucel (hydroxypropylcellulose) (HPC)
[3] = dose: 200.0 mg/kg/injection, schedule: Q01DX009 (ip), vehicle: Klucel (hydroxypropylcellulose) (HPC)
[4] = dose: 200.0 mg/kg/injection, schedule: Q04DX003 (ip), vehicle: Klucel (hydroxypropylcellulose) (HPC)
[5] = dose: 400.0 mg/kg/injection, schedule: Q01DX009 (ip), vehicle: Klucel (hydroxypropylcellulose) (HPC)
[6] = dose: 400.0 mg/kg/injection, schedule: Q04DX003 (ip), vehicle: Klucel (hydroxypropylcellulose) (HPC)
[7] = dose: 50.0 mg/kg/injection, schedule: Q04DX003 (ip), vehicle: saline
[8] = dose: 100.0 mg/kg/injection, schedule: Q04DX003 (ip), vehicle: saline
[9] = dose: 200.0 mg/kg/injection, schedule: Q04DX003 (ip), vehicle: saline
[10] = dose: 400.0 mg/kg/injection, schedule: Q04DX003 (ip), vehicle: saline
[11] = dose: 25.0 mg/kg/injection, schedule: Q01DX009 (ip), vehicle: saline with Tween-80
[12] = dose: 50.0 mg/kg/injection, schedule: Q01DX009 (ip), vehicle: saline with Tween-80
[13] = dose: 100.0 mg/kg/injection, schedule: Q01DX009 (ip), vehicle: saline with Tween-80
[14] = dose: 100.0 mg/kg/injection, schedule: Q04DX003 (ip), vehicle: saline with Tween-80
[15] = dose: 200.0 mg/kg/injection, schedule: Q04DX003 (ip), vehicle: saline with Tween-80
[16] = dose: 400.0 mg/kg/injection, schedule: Q04DX003 (ip), vehicle: saline with Tween-80
[17] = dose: 12.5 mg/kg/injection, schedule: Q01DX009 (ip), vehicle: saline with Tween-80
[18] = dose: 50.0 mg/kg/injection, schedule: Q04DX003 (ip), vehicle: saline with Tween-80
[19] = dose: 200.0 mg/kg/injection, schedule: Q01DX009 (ip), vehicle: saline with Tween-80

With `COc1ccc(C(CCl)(CCl)c2ccc(OC)cc2)cc1` the T/C (dose: 100.0 mg/kg/injection, schedule: Q01DX009 (ip), vehicle: gum acacia) was 116 % of control, the T/C (dose: 100.0 mg/kg/injection, schedule: Q04DX003 (ip), vehicle: gum acacia) was 87 % of control and the T/C (dose: 200.0 mg/kg/injection, schedule: Q01DX009 (ip), vehicle: gum acacia) was 112 % of control. The T/C (dose: 200.0 mg/kg/injection, schedule: Q04DX003 (ip), vehicle: gum acacia) was 104 % of control, the T/C (dose: 400.0 mg/kg/injection, schedule: Q01DX009 (ip), vehicle: gum acacia) was 104 % of control and the T/C (dose: 400.0 mg/kg/injection, schedule: Q04DX003 (ip), vehicle: gum acacia) was 95 % of control.
With `CCOc1cc(-c2nccc3cc(OC)c(OC)cc23)cc(OCC)c1OCC` the T/C [1] was 110 % of control, the T/C [2] was 100 % of control and the T/C [3] was 110 % of control. The T/C [4] was 100 % of control, the T/C [5] was 110 % of control and the T/C [6] was 100 % of control.
`CCC[N+](CCC)(CCC)CCC.N#CN=C([SH2+])[SH2+].N#CN=C([SH2+])[SH2+].[Pt+2]` was tested, and the T/C [7] was 100 % of control.
For `CSCC(N)CO` (configuration not stated), the T/C (dose: 25.0 mg/kg/injection, schedule: Q04DX003 (ip), vehicle: saline) was 104 % of control, the T/C [7] was 111 % of control and 116 % of control and the T/C [8] was 116 % of control. The T/C [9] was 109 % of control and 111 % of control and the T/C [10] was 90 % of control and 120 % of control.
`CC(C)(Br)C(=O)c1ccco1` was tested, and the T/C [11] was 109 % of control, the T/C [12] was 113 % of control and the T/C [13] was 113 % of control.
For `O=C1NC(=O)C(c2ccc(O)cc2)N1` (configuration not stated), the T/C [14] was 100 % of control, the T/C [15] was 109 % of control and the T/C [16] was 118 % of control.
For `COc1cc(NC(=O)C(C)NC(=O)C(N)CCCCN)cc2ccccc12` (configuration not stated), the T/C (dose: 50.0 mg/kg/injection, schedule: Q01DX005 (ip), vehicle: suspension in saline) was 95 % of control and the T/C (dose: 100.0 mg/kg/injection, schedule: Q01DX005 (ip), vehicle: suspension in saline) was 90 % of control.
In the case of `COc1cc2cc[n+](C)c(Cc3ccccc3)c2cc1OC`, the T/C [17] is reported as 100 % of control, the T/C (dose: 50.0 mg/kg/injection, schedule: Q01DX009 (ip), vehicle: Klucel (hydroxypropylcellulose) (HPC)) is reported as 159 % of control and the T/C [18] is reported as 113 % of control. The T/C [14] was 90 % of control.
With `CSc1ccc(OC(=O)Nc2ccc(C)c([N+](=O)[O-])c2)cc1C` the T/C [14] was 90 % of control, the T/C [15] was 95 % of control and the T/C [16] was 104 % of control.
For `CCOC(=O)CCSCC(C)(C)C(=O)OCC`, the T/C [8] was 90 % of control, the T/C [9] was 100 % of control and the T/C [10] was 95 % of control.
With `CC(C)(C)C1CNP(=O)(c2ccccc2)OC1` (configuration not stated) the T/C (dose: 50.0 mg/kg/injection, schedule: Q01DX005 (ip), vehicle: saline with Tween-80) was 99 % of control, the T/C (dose: 100.0 mg/kg/injection, schedule: Q01DX005 (ip), vehicle: saline with Tween-80) was 101 % of control and the T/C (dose: 200.0 mg/kg/injection, schedule: Q01DX005 (ip), vehicle: saline with Tween-80) was 100 % of control.
With `ClC1=C(Cl)C2(Cl)C3COCC3C1(Cl)C2(Cl)Cl` (configuration not stated) the T/C (dose: 100.0 mg/kg/injection, schedule: Q01DX001 (ip), vehicle: Klucel (hydroxypropylcellulose) (HPC)) was 113 % of control, the T/C [2] was 104 % of control and the T/C (dose: 200.0 mg/kg/injection, schedule: Q01DX001 (ip), vehicle: Klucel (hydroxypropylcellulose) (HPC)) was 113 % of control. For the same compound, the T/C [4] was 100 % of control and 108 % of control, the T/C (dose: 400.0 mg/kg/injection, schedule: Q01DX001 (ip), vehicle: Klucel (hydroxypropylcellulose) (HPC)) was 104 % of control and the T/C [6] was 100 % of control.
In the case of `O=C1C2CCCC1C(c1ccccc1)C=C2c1ccc(O)cc1` (configuration not stated), the T/C [14] is reported as 104 % of control, the T/C [15] is reported as 104 % of control and the T/C [16] is reported as 114 % of control.
`COC(=O)c1ccc(-c2cc(Cl)c3cc(S(=O)(=O)F)ccc3n2)cc1` was tested, and the T/C [13] was 90 % of control and the T/C [19] was 90 % of control.
In the case of `CC(=O)O.CC(=O)O.[NH-]C(CCC(N)=O)C(=O)O.[NH-]C(CCC(N)=O)C(=O)O.[Ni+2]` (configuration not stated), the T/C (dose: 12.5 mg/kg/injection, schedule: Q01DX009 (ip), vehicle: saline) is reported as 104 % of control and the T/C (dose: 25.0 mg/kg/injection, schedule: Q01DX009 (ip), vehicle: saline) is reported as 93 % of control.
With `COc1cccc2c1C(=O)c1c(O)c3c(c(O)c1C2=O)CC(O)(C(=O)CO)CC3OC1CC(N)C(O)C(C)O1` (configuration not stated) the T/C (dose: 1.73 mg/kg/injection, schedule: Q01DX004 (ip), vehicle: water) was 234 % of control, the T/C (dose: 2.88 mg/kg/injection, schedule: Q01DX004 (ip), vehicle: water) was 246 % of control and the T/C (dose: 4.8 mg/kg/injection, schedule: Q01DX004 (ip), vehicle: water) was 283 % of control. For the same compound, the T/C (dose: 6.48 mg/kg/injection, schedule: Q04DX003 (ip), vehicle: saline) was 158 % of control, the T/C (dose: 10.8 mg/kg/injection, schedule: Q04DX003 (ip), vehicle: saline) was 169 % of control and the T/C (dose: 18.0 mg/kg/injection, schedule: Q04DX003 (ip), vehicle: saline) was 187 % of control. For the same compound, the T/C (dose: 30.0 mg/kg/injection, schedule: Q04DX003 (ip), vehicle: saline) was 116 % of control.
`CCCCCCC/C=N/N=C/CCCCCCC` was tested, and the T/C (dose: 100.0 mg/kg/injection, schedule: Q01DX009 (ip), vehicle: other) was 100 % of control, the T/C (dose: 100.0 mg/kg/injection, schedule: Q04DX003 (ip), vehicle: other) was 109 % of control and the T/C (dose: 178.0 mg/kg/injection, schedule: Q01DX009 (ip), vehicle: other) was 122 % of control. For the same compound, the T/C (dose: 200.0 mg/kg/injection, schedule: Q04DX003 (ip), vehicle: other) was 109 % of control and the T/C (dose: 400.0 mg/kg/injection, schedule: Q01DX009 (ip), vehicle: other) was 104 % of control.
With `S=c1nc(-c2ccccc2)c(-c2ccccc2)n[nH]1` the T/C (dose: 20.0 mg/kg/injection, schedule: Q01DX001 (ip), vehicle: other) was 95 % of control, the T/C (dose: 40.0 mg/kg/injection, schedule: Q01DX001 (ip), vehicle: other) was 86 % of control and the T/C (dose: 40.0 mg/kg/injection, schedule: Q04DX003 (ip), vehicle: saline with Tween-80) was 104 % of control. For the same compound, the T/C (dose: 75.0 mg/kg/injection, schedule: Q01DX001 (ip), vehicle: other) was 122 % of control, the T/C (dose: 75.0 mg/kg/injection, schedule: Q04DX003 (ip), vehicle: saline with Tween-80) was 108 % of control and the T/C (dose: 150.0 mg/kg/injection, schedule: Q01DX001 (ip), vehicle: other) was 90 % of control. For the same compound, the T/C (dose: 150.0 mg/kg/injection, schedule: Q04DX003 (ip), vehicle: saline with Tween-80) was 116 % of control.
`CC(C)NC(=O)C12CC3CC(CC(C3)C1)C2` was tested, and the T/C [12] was 92 % of control, the T/C [13] was 87 % of control and the T/C [19] was 100 % of control.
With `FC(F)(F)c1nc2nc(Br)c(Br)nc2[nH]1` the T/C [13] was 100 % of control, the T/C [14] was 87 % of control and the T/C [19] was 90 % of control. The T/C [16] was 91 % of control.
`N#CCCN(C(=S)Nc1cccc(C(F)(F)F)c1)C1CCCCC1` was tested, and the T/C [12] was 114 % of control and 123 % of control, the T/C [13] was 110 % of control and 111 % of control and the T/C [19] was 106 % of control.
`CCOC(=O)c1cnn2c(SC)ncnc12` was tested, and the T/C [17] was 99 % of control, the T/C [11] was 111 % of control and the T/C (dose: 25.0 mg/kg/injection, schedule: Q04DX003 (ip), vehicle: saline with Tween-80) was 109 % of control. For the same compound, the T/C [12] was 101 % of control, the T/C [18] was 100 % of control and the T/C [13] was 99 % of control. For the same compound, the T/C [14] was 109 % of control.
For `FC(F)(F)C(F)(F)C(F)(F)c1nc2nc(Cl)c(Cl)nc2[nH]1`, the T/C (dose: 3.12 mg/kg/injection, schedule: Q01DX009 (ip), vehicle: saline with Tween-80) was 115 % of control, the T/C (dose: 6.25 mg/kg/injection, schedule: Q01DX009 (ip), vehicle: saline with Tween-80) was 105 % of control and the T/C [17] was 95 % of control. For the same compound, the T/C [18] was 95 % of control and the T/C [14] was 90 % of control.
In the case of `CC(C)(C1c2ccccc2C(=NO)c2ccccc21)[N+](=O)[O-]` (configuration not stated), the T/C [13] is reported as 109 % of control, the T/C [14] is reported as 91 % of control and the T/C [19] is reported as 90 % of control. For the same compound, the T/C [15] was 100 % of control, the T/C (dose: 400.0 mg/kg/injection, schedule: Q01DX009 (ip), vehicle: saline with Tween-80) was 100 % of control and the T/C [16] was 91 % of control.
For `CS(=O)(=O)c1nnc(-c2ccccc2)s1`, the T/C [1] was 94 % of control, the T/C [3] was 100 % of control and the T/C [5] was 103 % of control.
